Laboratory results: patent publication US20260000496A1, “MATERIALS AND METHODS FOR DRUG-INDUCED GINGIVAL OVERGROWTH” (Optimed Technology, Inc., priority 2019, published 2026)

Key:
[1] = tested on: MyD88; test: Western blot of MyD88 in oral keratinocytes; type: cell-based, human; settings: treated with CsA and LPS to simulate the disease, FIG. 35
Description: (§1) Cell Culture. Normal human oral keratinocytes (NOKSI) and fibroblast (HOF) cells were maintained in Dulbecco […] Eagle's medium (Sigma-Aldrich, St. Louis, MO, USA) supplemented with 10% fetal bovine serum (Atlas Bio-logicals, Fort Collins, CO, USA) and 100 units/mL penicillin and 100 μg/mL streptomycin (LifeTechnologies, Carlsbad, CA, USA). Cells were grown in incubator at 37° C. in a humidified chamber with 5% CO2.
Drugs treatment in cell culture. The cells were treated alone or with different combination of lipopolysaccharide, cyclosporine, phenytoin, and folic acid. All of them were purchased from Sigma-Aldrich (St. Louis, MO, USA). Each of them were used from 0 μg/ml to 40 μg/ml and the optimum concentration were found 10 μg/ml.
Western blot analysis. Cells were seeded in 60 mm plates with a density of 5×10^5 cells per plate and washed briefly with Dulbecco's phosphate-buffered saline (Gibco, Waltham, MA, USA). Whole cell lysates were prepared using RIPA lysis buffer containing protease inhibitor cocktail (Sigma-Aldrich). Total protein concentration was determined using the BCA reagent (Pierce, Waltham, MA, USA). 20 μg of total protein were resolved on sodium dodecyl sulfate-polyacrylamide gel electrophoresis and transferred to polyvinylidenedifluoride membrane and immunoblotted. The blots were incubated for 1 h in 1% bovine serum albumin (BSA) (Sigma-Aldrich) to block the non-specific bindings followed by over-night incubation in primary antibodies (MyD88 and pP65 from Cell Signaling Technology, and human LITAF ThermoFisher Sigma) at 4° C. on shaker. Next day, blots were washed for three times (10 min each) in Tris-buffered saline containing 1% Tween20 (TBST) followed by incubation with secondary antibody (Goat anti-rabbit IgG HRP) with 1:10,000 dilution for 1 h. Following washes, bands were visualized using gel documentation Imaging Systems (BioRad). The band intensities were quantified using software ImageJ (NIH, USA) and relative protein levels were normalized by β-actin (Cell Signaling). To perform the western blot of animal tissue samples, the gingival tissues were collected from both BABLB/c and C57BL/6 mice studies. The soft tissues were separated from the mandibular bone and then crunched. The Bradford assay was performed to measure the protein concentration of each sample. After normalization, 20 μg of whole tissue protein lysate were proceeded for western blot analysis.

[2] = tested on: Collagen type I alpha 1 (Col1a1); test: Collagen (Col1a1) expression in Human Oral Fibroblasts, QPCR; type: cell-based; settings: fibroblasts treated with TGF-β, FIG. 1
Description: as §1
Human Oral Fibroblasts (HOF) cells were seeded in 60 mm plates with a density of 2.5×10^4/cm^2 and treated with condition (CM) media collected from Oral Keratinocytes containing LPS (10 μg/ml), CSA (10 μg/ml), Phenytoin (10 μg/ml), or Folic acid (10 μg/ml) and incubated for 24 hours. The Collagen type I alpha 1 (Col1a1) gene expression was determined by QPCR. HOF cells were treated with rTGF-β, SB-431542 (SB), rTNF-α, or TNF-α inhibitor (TNF-α inh). Quantitative real-time PCR results showing the expression of Col1a1 in HOF cells after the treatment. (p<0.05).

| Substance | MyD88 expression in human oral keratinocytes after disease-simulating treatment [1] | collagen expression in fibroblasts [2] |
| --- | --- | --- |
| Lipopolysaccharide | robustly induce MyD88 expression | – |
| TGF-β | – | induce collagen expression |
